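Briefly, cells in 96-well plates were exposed to five compound concentrations for 48 h, and endpoints were estimated by linear interpolation. The concentration for 50% growth inhibition is given as GI50. TGI: total growth inhibition.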 Where a SMILES comes first, the peptide text is derived from it. [ ]: non-standard residue; d: D form. The star is where a group is joined. NMeF = CN[CH](Cc1ccccc1)C(=O)O; NMeV = CN[CH](C(=O)O)C(C)C; Boc = CC(C)(C)OC(=O)*; OBn = c1ccc(CO*)cc1
Columns and labels:
Experiment in all cases: growth of human tumour cells (NCI), 48 h
DMS 114 small cell lung = tested on: DMS 114 small cell lung
DMS 273 small cell lung = tested on: DMS 273 small cell lung
HOP-18 NSCLC = tested on: HOP-18 NSCLC
KM20L2 colon = tested on: KM20L2 colon
M19-MEL melanoma = tested on: M19-MEL melanoma
RXF-631 renal = tested on: RXF-631 renal
SNB-78 CNS = tested on: SNB-78 CNS
XF 498 CNS = tested on: XF 498 CNS
MDA-N = tested on: MDA-N

Row | Compound | TGI (DMS 114 small cell lung) | TGI (DMS 273 small cell lung) | TGI (HOP-18 NSCLC) | TGI (KM20L2 colon) | TGI (M19-MEL melanoma) | TGI (RXF-631 renal) | TGI (SNB-78 CNS) | TGI (XF 498 CNS) | TGI (MDA-N) | also measured
1 | CNC1=C(C)C(=O)C(C)=C(C(C)(C)CC(=O)n2cc(F)c(=O)[nH]c2=O)C1=O | > 100 µM | > 100 µM | > 100 µM | > 100 µM | > 100 µM | > 100 µM | > 100 µM | > 100 µM | – | –
2 | COc1cc2c(c3oc(-c4ccc5c(c4)OCO5)c(O)c(=O)c13)CCC(C)(C)O2 | > 100 µM | > 100 µM | > 100 µM | – | > 100 µM | > 100 µM | > 100 µM | – | – | –
3 | C#CCOCn1cnc2ncnc(Cl)c21 | > 100 µM | > 100 µM | > 100 µM | > 100 µM | > 100 µM | > 100 µM | > 100 µM | > 100 µM | – | –
4 | COc1cc(C)c(C(=O)/C=C/c2cc(OC)c(O)c(OC)c2)cc1O | 72.3 µM | 70.1 µM | – | 57.6 µM | 54 µM | 59.8 µM | > 100 µM | 30.7 µM | – | –
5 | COc1cc(C2[C@H]3C(=O)N(c4ccc(Cc5ccc(N6C(=O)[C@@H]7ON(c8ccccc8)C(c8cc(OC)c(OC)c(OC)c8)[C@@H]7C6=O)cc5)cc4)C(=O)[C@H]3ON2c2ccccc2)cc(OC)c1OC (stereo not given in full) | > 100 µM | > 100 µM | > 100 µM | > 100 µM | > 100 µM | > 100 µM | > 100 µM | – | – | –
6 | CSc1nc2c(nc(N)n2C2OCC(O)C(O)C2O)c(=O)[nH]1 (stereo not given) | > 100 µM | – | > 100 µM | > 100 µM | > 100 µM | > 100 µM | > 100 µM | > 100 µM | – | –
7 | CC(=O)Nc1ccc(-c2nnc(SCC(=O)Nc3ccccc3[N+](=O)[O-])o2)cc1 | > 100 µM | > 100 µM | > 100 µM | > 100 µM | > 100 µM | – | > 100 µM | – | – | –
8 | N=C(N)n1[nH]c2c(c1=O)CCC2 | – | – | – | – | – | – | – | – | > 100 µM | –
9 | CCCCNC(=S)/N=C/c1c(O)c2ccccc2oc1=O | – | – | – | – | – | – | – | – | > 100 µM | –
10 | O=C1c2cnccc2Cc2cccc3c2N1c1ccccc1S3 | 73.6 µM | 78.2 µM | – | 34.8 µM | 86.7 µM | > 100 µM | – | 32.6 µM | – | –
11 | COc1cc(NCC(C#N)C#N)ccc1N=Nc1ccc([N+](=O)[O-])cc1 | > 100 µM | > 100 µM | > 100 µM | > 100 µM | > 100 µM | > 100 µM | > 100 µM | – | – | –
12 | NNC(=O)CC(=O)Nc1ccccc1F | > 100 µM | > 100 µM | > 100 µM | > 100 µM | > 100 µM | > 100 µM | > 100 µM | – | – | –
13 | Cn1c2ccccc2c2cc(-c3ccccc3)c3c(c21)C(=O)C=CC3=O | 19.8 µM | 40.6 µM | – | – | 46.6 µM | > 100 µM | > 64.8 µM | 32.1 µM | 41.8 µM | –
14 | CC1=C(C(=O)Nc2ccccc2C)C(c2ccc(N(C)C)cc2)C(C(=O)Nc2ccccc2C)=C(C)N1 | > 100 µM | > 100 µM | – | > 100 µM | > 100 µM | > 100 µM | – | > 100 µM | – | –
15 | COc1ccc2oc(-c3ccncc3)cc(=O)c2c1 | > 100 µM | > 100 µM | – | – | – | > 100 µM | – | > 100 µM | – | –
16 | CCC[CH2][Sn]1([CH2]CCC)[O]C(=O)C[S]1 | 4.08 µM | 6.07 µM | 2.91 µM | 15.9 µM | 7.75 µM | 5.05 µM | 4.14 µM | 2.74 µM | – | GI50 (DMS 114 small cell lung): 1.29 µM; GI50 (DMS 273 small cell lung): 2.11 µM; GI50 (HOP-18 NSCLC): 1.57 µM; GI50 (KM20L2 colon): 4.06 µM; GI50 (M19-MEL melanoma): 1.9 µM; GI50 (RXF-631 renal): 0.85 µM; GI50 (SNB-78 CNS): 1.17 µM; GI50 (XF 498 CNS): 1.41 µM
17 | N/C(=N\OC(=O)NC(Cl)=C(Cl)Cl)c1cc(C(F)(F)F)cc(C(F)(F)F)c1 | – | – | – | – | – | – | – | – | 59.5 µM | –
18 | O=C(/C=C/c1cccs1)c1ccsc1 | – | – | – | – | – | – | – | – | 36.3 µM | –
19 | OC(COc1ccc(Cl)cc1Cl)CN1CCCC1 (stereo not given) | – | – | – | – | – | – | – | – | > 100 µM | –
20 | CC(C)C(NC(=O)OC(C)(C)C)C(=O)N(C)C(Cc1ccccc1)C(=O)N(C)C(C(=O)N(C)C(C(=O)OCc1ccccc1)C(C)C)C(C)C (stereo not given) (Boc-V[NMeF][NMeV][NMeV]-OBn; configuration not given here) | > 100 µM | > 100 µM | – | > 100 µM | > 100 µM | – | – | 82.4 µM | – | –
21 | COc1ccc(-c2cc(-c3ccccc3)c(C#N)c(=O)[nH]2)cc1 | > 100 µM | > 100 µM | > 100 µM | > 100 µM | > 100 µM | > 100 µM | > 100 µM | – | – | –

Row | Compound | TGI (DMS 114 small cell lung) | TGI (DMS 273 small cell lung) | TGI (HOP-18 NSCLC) | TGI (KM20L2 colon) | TGI (M19-MEL melanoma) | TGI (RXF-631 renal) | TGI (SNB-78 CNS) | TGI (XF 498 CNS) | TGI (MDA-N) | also measured
22 | CC1OC(OC2C(OC3C[C@@]4(C)C(C[C@H](O)[C@H]5[C@H](C6(C)CCC(C(C)(C)O)O6)CCC54C)[C@]4(C)CC[C@@H](O)C(C)(C)C34)OC(CO)C(O)C2O)C(O)C(O)C1O (stereo not given in full) (tested in a mixture with another compound) | – | – | – | – | – | – | – | – | > 100 µM | –
23 | CCC(=N\NC(N)=S)/C(C)=N/O | – | – | – | – | – | – | – | – | > 100 µM | –
24 | O=C1C[C@@H](c2ccccc2)NCCCCN(O)CCCN1 | – | – | – | – | – | – | – | – | > 100 µM | –
25 | CC1=CC(=O)c2cccc(NC3=NCCO3)c21 | – | – | – | – | – | – | – | – | > 100 µM | –
26 | O=C1Cc2ccccc2N1/N=C\c1ccc(O)cc1 | > 100 µM | > 100 µM | > 100 µM | > 100 µM | > 100 µM | > 100 µM | > 100 µM | > 100 µM | – | –
27 | COc1ccc(S(=O)(=O)O)cc1NS(=O)(=O)c1ccc(C)cc1 | – | – | – | – | – | – | – | – | > 100 µM | –
28 | O=C1C2Cc3ccccc3CN2C(=O)N1CN1CCN(CN2C(=O)C3Cc4ccccc4CN3C2=O)CC1 (stereo not given) | > 100 µM | > 100 µM | > 100 µM | > 100 µM | > 100 µM | > 100 µM | > 100 µM | – | – | –
29 | Cc1nc2ccccc2c(=O)n1NC(=O)Cc1ccccc1 | – | – | – | – | – | – | – | – | > 100 µM | –
30 | O=C(CCCn1ccnc1[N+](=O)[O-])NCCn1cnc([N+](=O)[O-])c1 | – | – | – | – | – | – | – | – | > 100 µM | –
31 | COc1cc(C/C=C/c2ccccc2)c(OC)cc1O | – | – | – | – | – | – | – | – | 33.8 µM | –
32 | CC1SC2=NC3=C(c4ccccc4C3=O)C(c3ccc(Br)cc3)N2C1=O (stereo not given) | > 100 µM | > 100 µM | – | > 100 µM | > 100 µM | – | – | > 100 µM | – | –
33 | CSc1nc(Cl)c(Br)c(Nc2c[nH]c(=O)[nH]c2=O)n1 | – | – | – | – | – | – | – | – | 46.9 µM | –
34 | O=C1c2c(c3c4ccccc4n4c3c3c2c2ccccc2n3C/C=C\C4)C(=O)N1Cc1ccccc1 | – | – | > 100 µM | > 100 µM | > 100 µM | – | – | 85.9 µM | – | –
35 | CSC(=S)N(C)NC(=O)c1cccc(C(=O)NN(C)C(=S)SC)n1 | 17 µM | 54.1 µM | > 100 µM | > 100 µM | > 100 µM | – | > 100 µM | – | – | –
36 | O=C(N/C(=C\c1ccc([N+](=O)[O-])cc1)c1nc2[nH]c(=S)[nH]c(=O)c2[nH]1)c1ccccc1 | > 100 µM | – | – | > 100 µM | > 100 µM | – | > 100 µM | > 100 µM | – | –
37 | O=C(c1ccc(Cl)cc1)N(C(=S)N1CCN(c2ccccn2)CC1)c1ccccc1 | > 100 µM | > 100 µM | > 100 µM | > 100 µM | > 100 µM | – | > 100 µM | – | – | –
38 | COc1ccc(CNc2nc3ccccc3nc2-c2cccs2)cc1OC | – | > 100 µM | > 100 µM | > 100 µM | > 100 µM | > 100 µM | > 100 µM | 59.6 µM | – | –
39 | CC(C)O/C=C1\C(=O)C2(SCCS2)[C@H]2CCCC[C@@H]12 | – | > 100 µM | > 100 µM | > 100 µM | > 100 µM | > 100 µM | > 100 µM | – | – | –
40 | CCOC(=O)CNC(SC)=C(C#N)C#N | > 100 µM | > 100 µM | – | > 100 µM | > 100 µM | – | > 100 µM | > 100 µM | – | –
41 | Cc1cn(C2C=CC(=O)C(C)O2)c(=O)[nH]c1=O (stereo not given) | – | 33.7 µM | 28.5 µM | 30.2 µM | 30.1 µM | 28.5 µM | 35.4 µM | 26.4 µM | – | –
